From patent US20250099779A1, “DEVICE AND METHOD FOR REGULATING RELEASE OF ADENOSINE IN ORGANISM, AND USE” (WENZHOU VENTURA TECHNOLOGY CO., LTD., priority 2022, published 2025)
Entries after “also recorded” stand apart in the source; their conditions may differ.

Columns and labels:
Type in all cases: in vivo
CD73-KO mice = assay: Nocturnal movement activity after 40 Hz light flicker
Method: Thus, we speculated that the 40 Hz light flicker stimulus can regulate sleep rhythm. We firstly exposed the wild-type C57BL/6J mice to light flickers at different frequencies in the last 30 minutes of the daytime phase (19:30-20:00), and then monitored the nocturnal movement activity of the mice, thereby reflecting the sleep-wake states of the mice indirectly. […] We then intraperitoneally injected CD73-KO mice with the […] transporter inhibitor Dipyridamole (Dipyr) at 15 mg/kg. […] Meanwhile, we also intraperitoneally injected CD73-KO mice with the adenosine Al receptor activity antagonist 8-Cyclopentyl-1,3-dipropyl-1H-purine-2,6(3H,7H)-dione (DPCPX) at 6 mg/kg.

[1] = test system: adenosine in the visual cortex (V1); assay: UPLC detection of total adenosine concentration in the visual cortex of mice; conditions: mice visual cortex V1, Dipyridamole 6 mg/kg intraperitoneal, 30 min before illumination
Method: The total concentration of adenosine in the visual cortex of mice was detected by ultra-high performance liquid chromatography (which is reported including 95% extracellular adenosine and 5% intracellular adenosine in literature). Dipyridamole (Dipyr) (a 6 mg/kg adenosine transporter inhibitor) dissolved in 0.5% methylcellulose was intraperitoneally injected 30 minutes before illumination, while the control group was given 0.5% methylcellulose. 30 minutes after the injection, the blank control group and the Dipyridamole group were illuminated for 30 minutes by the light flicker stimulus with the illuminance of 3000 lux, the duty ratio of 50% and the strobe of 40 Hz (referred to as “40 Hz light flicker stimulus” hereinafter). After illumination, the materials were sampled, weighed and rapidly frozen in liquid nitrogen immediately. After the sample processing, the peak value at about 2.0 was detected on machine with reference to the parameters of the standard substance, and the area under the curve at this moment was taken as the concentration of adenosine in the sample. Finally, the concentration of adenosine was obtained after checking the sample quality and calibrating.

C57BL/6J mice = assay: EEG/EMG sleep recording after adenosine microinjection into V1 visual cortex
Method: Adenosine was injected locally in the V1 cortex of mice to illustrate that the increase in the concentration of adenosine in the visual cortex could improve the sleep amount of mice. The administration cannulas were implanted in bilateral V1 brain regions of C57BL/6J mice, and the mice were placed in the sleep recording cage after about 10 days of surgical recovery. After 3 days of adaptation, the artificial cerebrospinal fluid (ACSF), adenosine of 1.5 nmol/side or adenosine 4.5 nmol/side was microinjected into the V1 visual cortex at the beginning of the dark phase on days 1, 4 and 7 (the administration order was random, and the injection volume was 2 μl/side), respectively; and the EEG/EMG of mice was recorded.

[2] = 4.5 nmol/side microinjected into V1, mice

In the case of CCCn1c(=O)c2[nH]c(C3CCCC3)nc2n(CCC)c1=O [DPCPX, 8-Cyclopentyl-1,3-dipropyl-1H-purine-2,6(3H,7H)-dione], the “movement inhibition effect caused by the 40 Hz light flicker” value (CD73-KO mice; 6 mg/kg intraperitoneal, 6 mg/kg) is reported as “block the movement inhibition effect”.

With OCCN(CCO)c1nc(N2CCCCC2)c2nc(N(CCO)CCO)nc(N3CCCCC3)c2n1 [Dipyridamole] the “total concentration of intracellular and extracellular adenosine” value [1] was “effectively inhibit” and the “movement inhibition effect induced by the 40 Hz light flicker” value (CD73-KO mice; 15 mg/kg intraperitoneal, 15 mg/kg) was “blocks the movement inhibition effect; also recorded: completely disappeared”.

In the case of Nc1ncnc2c1ncn2[C@@H]1O[C@H](CO)[C@@H](O)[C@H]1O [adenosine], the “sleep amount compared to the control group (ACSF)” value (C57BL/6J mice; 1.5 nmol/side microinjected into V1, mice) is reported as “tendency to promote sleep but no significant difference”, the “amount of the non-rapid eye movement sleep in the dark phase” value (C57BL/6J mice; [2]) is reported as 3 h and the “non-rapid eye movement sleep amount compared to the control group (ACSF)” value (C57BL/6J mice; [2]) is reported as “significantly increases”. The “total sleep amount of mice” value (C57BL/6J mice; adenosine injection into the visual cortex, 1.5 and 4.5 nmol/side) was “concentration-dependent increase”.
